The record followed here is paper PMC8178997 (Chemical Science, 2020).

Where no end group is shown, it is not given here.

The assay has as its target T1, NCBD (the [2066–2112]-fragment of CBP) (Mus musculus, UniProt P45481).
T1 sequence (P45481 2066-2112): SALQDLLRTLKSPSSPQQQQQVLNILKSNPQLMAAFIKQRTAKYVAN
Description: Isothermal titration calorimetry. The class given is binding.

The Kd is the constant that tells how readily two partners part at equilibrium. Read a low Kd as a tighter complex. “EGQMDERALLEQLHQLLSNTDATGLEEIDRALGIPELVNQGQALEPK [[S1043M;D1050E;T1054Q]]”: binding was put at a Kd of 188 nM.
